# Measurements: ChEMBL document CHEMBL4680348, “1,2,4-Thiadiazole acyclic nucleoside phosphonates as inhibitors of cysteine dependent enzymes cathepsin K and GSK-3β” (Bioorg Med Chem, 2021)
# Tests used:
# [1] = molecular target: T1, Cathepsin K (Homo sapiens) (UniProt P43235); experiment: Inhibition of recombinant human Cathepsin K expressed in Pichia pastoris X-33 assessed as residual activity at 10 uM using Z-Gly-Pro-Arg-AMC as substrate preincubated for 10 mins followed by substrate addition measured after 30 mins by fluorescence based microplate reader assay; conditions: time 40.0 min
# T1 sequence (whole entry): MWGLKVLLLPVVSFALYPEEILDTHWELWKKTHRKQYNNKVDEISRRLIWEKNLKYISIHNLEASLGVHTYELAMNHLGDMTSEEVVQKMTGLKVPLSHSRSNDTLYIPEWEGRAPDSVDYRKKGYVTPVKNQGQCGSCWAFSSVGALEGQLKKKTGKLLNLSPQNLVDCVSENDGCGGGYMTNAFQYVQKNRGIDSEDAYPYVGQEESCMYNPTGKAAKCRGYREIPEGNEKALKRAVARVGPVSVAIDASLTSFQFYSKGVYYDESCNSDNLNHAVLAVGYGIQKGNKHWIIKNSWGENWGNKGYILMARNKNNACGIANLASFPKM
# CCRF-CEM [2] = experiment: Cytotoxicity against human CCRF-CEM cells assessed as cell viability at 10 uM incubated for 72 hrs by CellTiter-Glo luminescence based assay; assay type: functional; conditions: read-out: Activity
# CCRF-CEM [3] = experiment: Cytotoxicity against human CCRF-CEM cells assessed as cell viability at 100 uM incubated for 72 hrs by CellTiter-Glo luminescence based assay; assay type: functional; conditions: read-out: Activity
# HL-60 [4] = experiment: Cytotoxicity against human HL-60 cells assessed as cell viability at 10 uM incubated for 72 hrs by CellTiter-Glo luminescence based assay; assay type: functional; conditions: read-out: Activity
# HL-60 [5] = experiment: Cytotoxicity against human HL-60 cells assessed as cell viability at 100 uM incubated for 72 hrs by CellTiter-Glo luminescence based assay; assay type: functional; conditions: read-out: Activity
# HeLa S3 [6] = experiment: Cytotoxicity against human HeLa S3 cells assessed as cell viability at 10 uM incubated for 72 hrs by CellTiter-Glo luminescence based assay; assay type: functional; conditions: read-out: Activity
# HeLa S3 [7] = experiment: Cytotoxicity against human HeLa S3 cells assessed as cell viability at 100 uM incubated for 72 hrs by CellTiter-Glo luminescence based assay; assay type: functional; conditions: read-out: Activity
# HepG2 [8] = experiment: Cytotoxicity against human HepG2 cells assessed as cell viability at 10 uM incubated for 72 hrs by CellTiter-Glo luminescence based assay; assay type: functional; conditions: read-out: Activity
# HepG2 [9] = experiment: Cytotoxicity against human HepG2 cells assessed as cell viability at 100 uM incubated for 72 hrs by CellTiter-Glo luminescence based assay; assay type: functional; conditions: read-out: Activity
# SH-SY5Y [10] = experiment: Cytotoxicity against human SH-SY5Y cells assessed as cell viability at 10 uM incubated for 72 hrs by CellTiter-Glo luminescence based assay; assay type: functional; conditions: read-out: Activity
# SH-SY5Y [11] = experiment: Cytotoxicity against human SH-SY5Y cells assessed as cell viability at 100 uM incubated for 72 hrs by CellTiter-Glo luminescence based assay; assay type: functional; conditions: read-out: Activity
# [12] = Cytotoxicity against human NHDF cells assessed as cell viability at 10 uM incubated for 72 hrs by CellTiter-Glo luminescence based assay; conditions: read-out: Activity
# [13] = Cytotoxicity against human NHDF cells assessed as cell viability at 100 uM incubated for 72 hrs by CellTiter-Glo luminescence based assay; conditions: read-out: Activity
# Cathepsin K = molecular target: T2, Cathepsin K (Homo sapiens, UniProt P43235); experiment: Inhibition of recombinant human Cathepsin K expressed in Pichia pastoris X-33 using Z-Gly-Pro-Arg-AMC as substrate preincubated for 10 mins followed by substrate addition measured after 30 mins by fluorescence based microplate reader assay
# T2 sequence (P43235 whole entry): T1 sequence (whole entry)
# [14] = molecular target: Glycogen synthase kinase-3 beta (Homo sapiens, UniProt P49841); experiment: Inhibition of human recombinant GSK3beta using GSK3 peptide as substrate preincubated for 15 mins followed by ATP addition and measured after 90 mins by ADP-Glo kinase assay
# Sequence of Glycogen synthase kinase-3 beta (P49841 whole entry): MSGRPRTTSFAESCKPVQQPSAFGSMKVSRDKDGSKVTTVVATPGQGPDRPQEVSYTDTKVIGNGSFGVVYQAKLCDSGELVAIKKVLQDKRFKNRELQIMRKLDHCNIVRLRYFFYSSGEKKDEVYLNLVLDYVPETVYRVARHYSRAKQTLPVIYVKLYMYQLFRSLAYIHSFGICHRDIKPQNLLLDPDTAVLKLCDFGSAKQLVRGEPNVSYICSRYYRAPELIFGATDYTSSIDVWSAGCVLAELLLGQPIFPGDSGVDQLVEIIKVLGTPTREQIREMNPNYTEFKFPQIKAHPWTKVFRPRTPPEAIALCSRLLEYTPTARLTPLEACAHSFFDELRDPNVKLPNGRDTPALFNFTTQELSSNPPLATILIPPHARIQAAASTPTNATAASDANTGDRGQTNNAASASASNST
SMILES,Activity [1],IC50 (Cathepsin K),IC50 [14],viability at 10 µM (CCRF-CEM [2]),viability at 100 µM (CCRF-CEM [3]),viability at 10 µM (HL-60 [4]),viability at 100 µM (HL-60 [5]),viability at 10 µM (HeLa S3 [6]),viability at 100 µM (HeLa S3 [7]),viability at 10 µM (HepG2 [8]),viability at 100 µM (HepG2 [9]),viability at 10 µM (SH-SY5Y [10]),viability at 100 µM (SH-SY5Y [11]),"viability at 72 h, 10 µM [12]","viability at 72 h, 100 µM [13]"
CCOC(=O)Nc1nc(=O)n(CCOCP(=O)(O)O)s1,39.1%,10.1 µM,> 10 µM,74%,77%,96%,100%,94%,96%,98%,97%,103%,105%,94%,97%
O=C(/N=c1\s[nH]c(=O)n1C[C@H](O)COC(c1ccccc1)(c1ccccc1)c1ccccc1)c1ccccc1,34.2%,14.9 µM,> 10 µM,81%,5%,93%,9%,45%,3%,91%,37%,96%,34%,98%,79%
Nc1nc(=O)[nH]s1,16.9%,6.34 µM,> 10 µM,120%,4%,98%,95%,100%,87%,87%,54%,99%,56%,101%,49%
CC(C)OP(=O)(CO[C@H](CO)Cn1sc(NC(=O)OCC2c3ccccc3-c3ccccc32)nc1=O)OC(C)C,34.1%,9.25 µM,> 10 µM,82%,82%,103%,110%,99%,100%,102%,92%,102%,85%,98%,100%

# More lines, main results first:
Activity [1],IC50 (Cathepsin K),IC50 [14],SMILES,viability at 10 µM (CCRF-CEM [2]),viability at 100 µM (CCRF-CEM [3]),viability at 10 µM (HL-60 [4]),viability at 100 µM (HL-60 [5]),viability at 10 µM (HeLa S3 [6]),viability at 100 µM (HeLa S3 [7]),viability at 10 µM (HepG2 [8]),viability at 100 µM (HepG2 [9]),viability at 10 µM (SH-SY5Y [10]),viability at 100 µM (SH-SY5Y [11]),"viability at 72 h, 10 µM [12]","viability at 72 h, 100 µM [13]"
5.3%,2.63 µM,> 10 µM,CN(C)/C=N/c1nc(OC[C@H](O)COC(c2ccccc2)(c2ccccc2)c2ccccc2)ns1,101%,2%,86%,1%,91%,2%,92%,1%,99%,2%,97%,1%
28.3%,10.1 µM,> 10 µM,CN(C)/C=N/c1nc(=O)n(C[C@H](O)COC(c2ccccc2)(c2ccccc2)c2ccccc2)s1,15%,1%,64%,2%,80%,1%,87%,1%,67%,3%,77%,1%
